Experimental findings from patent US9777012B2, “Substituted furo[2,3-d]pyrimidines as multi-targeted receptor tyrosine kinase inhibitors and microtubule targeting antitumor agents” (Duquesne University of the Holy Spirit, priority 2014, dated 2017) are described below.

One assay concerns the target T1, VEGFR-2 (Homo sapiens, UniProt P35968).
T1 construct: tumor cell lines naturally expressing high levels of EGFR (A431), VEGFR-2 (U251); endogenous in cells; host or cells: U251
Description: Phosphotyrosine ELISA cytoblot, VEGFR-2 (U251 cells). It is filed as cell-based. The settings on record: for fold better than sunitinib, VEGFR-2: VEGFR-2 expressing cells; for IC50: U251 cells, phosphotyrosine ELISA, VEGF stimulation, read-out: VEGFR-2 kinase inhibition. Background: ELISA stands for enzyme-linked immunosorbent assay.

The next assay concerns the target T2, PDGFR-β (Homo sapiens, UniProt P09619).
T2 construct: naturally expressing high levels of EGFR (A431), VEGFR-2 (U251), and PDGFR-β (SH-SY5Y); endogenous in cells; host or cells: SH-SY5Y
Description: Phosphotyrosine ELISA cytoblot, PDGFR-β (SH-SY5Y cells). The settings on record: for fold better than sunitinib, PDGFR-β: PDGFR-β expressing cells; for IC50: SH-SY5Y cells, phosphotyrosine ELISA, PDGF-BB stimulation, read-out: PDGFR-β kinase inhibition. It is filed as cell-based.

Assay [1] deals with cellular microtubules in A-10 cells. The assay can be described thus: Cellular microtubule depolymerization, indirect immunofluorescence. The assay is classed as cell-based. The settings on record: for effect on cellular microtubules: result in words.
Description: Evaluation of microtubule inhibition was performed using previously described methods.^22 Indirect immunofluorescence was used to evaluate the effects of the compounds on cellular microtubules as described previously.^38 Briefly, A-10 cells were treated for 18 h with vehicle (DMSO) or a compound, and microtubule effects were evaluated microscopically using β-tubulin antibody. The EC50 was calculated from 3 independent experiments and expressed as the mean±SD.
The next assay deals with M6/6 cells. Description: SRB antiproliferative assay, M6/6 (SK-OV-3 expressing Pgp). It is filed as cell-based. As to conditions: for IC50: Homo sapiens, SK-OV-3, SRB assay, 48 h, Pgp expressing, read-out: IC50 ± SD in M6/6 cells; for Rr value: relative resistance, M6/6 (Pgp) vs parental SKOV3.
For a further assay, the target named is T3, EGFR (Homo sapiens, UniProt P00533).
T3 construct: tumor cell lines naturally expressing high levels of EGFR (A431); endogenous in cells; host or cells: A431
Description: Phosphotyrosine ELISA cytoblot, EGFR (A431 cells). As to conditions: EGF stimulation, read-out: EGFR kinase inhibition. It is filed as cell-based.

The next assay deals with WTβ3 cells. Description: SRB antiproliferative assay, WTβ3 (HeLa overexpressing βIII tubulin). The assay is classed as cell-based. As to conditions: relative resistance, WTβ3 vs parental HeLa. (Sulforhodamine B stains cellular protein and so reports cell mass.)
Another assay concerns tubulin. Description: Inhibition of tubulin assembly (purified tubulin). The assay is classed as biochemical. As to conditions: read-out: Inhibition tubulin assembly IC50(μM) ± SD.
For another assay, the system named is A431 cancer cells. The assay can be described thus: A431 cytotoxicity (cell proliferation). The assay is classed as cell-based. The settings on record: Homo sapiens, A-431; A431 cancer cells overexpressing EGFR.

Structures are written as SMILES. Where “and” joins values, the source holds several entries; their conditions need not be identical. Equal values may be shown once. A value given as a limit tells only on which side of the number the result lay.

T1 sequence (P35968 20-1356): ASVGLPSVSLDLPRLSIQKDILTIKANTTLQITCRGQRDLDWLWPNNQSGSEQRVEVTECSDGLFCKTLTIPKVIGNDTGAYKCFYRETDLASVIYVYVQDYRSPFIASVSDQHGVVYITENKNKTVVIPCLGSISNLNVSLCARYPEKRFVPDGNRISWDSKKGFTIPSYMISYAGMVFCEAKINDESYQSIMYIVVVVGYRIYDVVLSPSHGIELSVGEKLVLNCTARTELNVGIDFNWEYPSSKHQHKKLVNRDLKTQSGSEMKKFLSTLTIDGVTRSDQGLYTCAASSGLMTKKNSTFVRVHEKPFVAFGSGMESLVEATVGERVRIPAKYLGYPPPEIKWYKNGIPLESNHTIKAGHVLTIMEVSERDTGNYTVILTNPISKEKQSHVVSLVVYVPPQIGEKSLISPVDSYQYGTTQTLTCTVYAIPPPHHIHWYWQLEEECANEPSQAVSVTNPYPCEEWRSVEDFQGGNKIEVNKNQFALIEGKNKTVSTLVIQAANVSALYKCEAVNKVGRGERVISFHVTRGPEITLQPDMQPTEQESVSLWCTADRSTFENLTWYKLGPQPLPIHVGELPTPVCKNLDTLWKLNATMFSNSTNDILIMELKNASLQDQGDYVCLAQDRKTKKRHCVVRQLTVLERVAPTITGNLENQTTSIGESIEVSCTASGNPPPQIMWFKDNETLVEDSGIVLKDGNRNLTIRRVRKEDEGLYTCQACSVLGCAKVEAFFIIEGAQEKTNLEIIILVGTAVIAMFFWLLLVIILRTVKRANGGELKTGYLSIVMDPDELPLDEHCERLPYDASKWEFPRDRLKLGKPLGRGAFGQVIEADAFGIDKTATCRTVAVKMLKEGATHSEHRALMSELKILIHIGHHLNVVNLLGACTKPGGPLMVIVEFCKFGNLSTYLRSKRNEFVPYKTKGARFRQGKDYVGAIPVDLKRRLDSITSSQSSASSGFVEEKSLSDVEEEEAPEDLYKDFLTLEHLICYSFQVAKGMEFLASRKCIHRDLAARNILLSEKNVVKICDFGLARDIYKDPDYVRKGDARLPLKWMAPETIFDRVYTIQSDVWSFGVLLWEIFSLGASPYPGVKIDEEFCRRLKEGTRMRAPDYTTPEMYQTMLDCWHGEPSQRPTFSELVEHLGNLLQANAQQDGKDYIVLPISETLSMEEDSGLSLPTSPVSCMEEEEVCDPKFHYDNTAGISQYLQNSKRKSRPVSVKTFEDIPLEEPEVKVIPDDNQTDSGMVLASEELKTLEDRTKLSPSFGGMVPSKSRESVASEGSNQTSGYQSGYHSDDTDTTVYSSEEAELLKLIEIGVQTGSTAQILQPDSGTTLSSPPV
T2 sequence (P09619 33-1106): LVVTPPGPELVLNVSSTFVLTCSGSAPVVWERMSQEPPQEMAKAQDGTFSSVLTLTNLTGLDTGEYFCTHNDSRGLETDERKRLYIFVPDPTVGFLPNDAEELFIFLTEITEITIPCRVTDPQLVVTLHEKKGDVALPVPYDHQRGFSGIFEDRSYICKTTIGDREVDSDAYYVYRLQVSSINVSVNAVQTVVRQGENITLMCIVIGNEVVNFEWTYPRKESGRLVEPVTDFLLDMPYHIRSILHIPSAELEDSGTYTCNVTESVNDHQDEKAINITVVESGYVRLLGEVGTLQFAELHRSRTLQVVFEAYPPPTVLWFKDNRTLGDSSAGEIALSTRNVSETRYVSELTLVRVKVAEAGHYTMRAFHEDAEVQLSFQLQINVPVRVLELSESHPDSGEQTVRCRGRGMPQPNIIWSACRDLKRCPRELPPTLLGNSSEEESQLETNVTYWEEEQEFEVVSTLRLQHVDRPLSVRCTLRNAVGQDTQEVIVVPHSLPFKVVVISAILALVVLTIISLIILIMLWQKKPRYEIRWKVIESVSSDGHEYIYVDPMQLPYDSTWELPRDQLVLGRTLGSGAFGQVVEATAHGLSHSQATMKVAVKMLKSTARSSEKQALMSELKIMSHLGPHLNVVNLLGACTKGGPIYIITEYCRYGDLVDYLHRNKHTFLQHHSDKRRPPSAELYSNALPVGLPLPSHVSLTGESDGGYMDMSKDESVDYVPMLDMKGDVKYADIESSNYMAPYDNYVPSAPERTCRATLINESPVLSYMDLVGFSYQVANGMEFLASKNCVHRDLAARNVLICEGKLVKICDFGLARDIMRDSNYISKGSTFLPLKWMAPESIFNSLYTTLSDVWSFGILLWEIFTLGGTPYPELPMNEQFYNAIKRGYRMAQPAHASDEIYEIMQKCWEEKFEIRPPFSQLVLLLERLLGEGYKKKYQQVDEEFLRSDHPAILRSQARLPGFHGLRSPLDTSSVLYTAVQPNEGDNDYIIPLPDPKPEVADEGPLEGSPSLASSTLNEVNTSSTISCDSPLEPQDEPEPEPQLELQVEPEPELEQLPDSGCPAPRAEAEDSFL
T3 sequence (P00533 25-1210): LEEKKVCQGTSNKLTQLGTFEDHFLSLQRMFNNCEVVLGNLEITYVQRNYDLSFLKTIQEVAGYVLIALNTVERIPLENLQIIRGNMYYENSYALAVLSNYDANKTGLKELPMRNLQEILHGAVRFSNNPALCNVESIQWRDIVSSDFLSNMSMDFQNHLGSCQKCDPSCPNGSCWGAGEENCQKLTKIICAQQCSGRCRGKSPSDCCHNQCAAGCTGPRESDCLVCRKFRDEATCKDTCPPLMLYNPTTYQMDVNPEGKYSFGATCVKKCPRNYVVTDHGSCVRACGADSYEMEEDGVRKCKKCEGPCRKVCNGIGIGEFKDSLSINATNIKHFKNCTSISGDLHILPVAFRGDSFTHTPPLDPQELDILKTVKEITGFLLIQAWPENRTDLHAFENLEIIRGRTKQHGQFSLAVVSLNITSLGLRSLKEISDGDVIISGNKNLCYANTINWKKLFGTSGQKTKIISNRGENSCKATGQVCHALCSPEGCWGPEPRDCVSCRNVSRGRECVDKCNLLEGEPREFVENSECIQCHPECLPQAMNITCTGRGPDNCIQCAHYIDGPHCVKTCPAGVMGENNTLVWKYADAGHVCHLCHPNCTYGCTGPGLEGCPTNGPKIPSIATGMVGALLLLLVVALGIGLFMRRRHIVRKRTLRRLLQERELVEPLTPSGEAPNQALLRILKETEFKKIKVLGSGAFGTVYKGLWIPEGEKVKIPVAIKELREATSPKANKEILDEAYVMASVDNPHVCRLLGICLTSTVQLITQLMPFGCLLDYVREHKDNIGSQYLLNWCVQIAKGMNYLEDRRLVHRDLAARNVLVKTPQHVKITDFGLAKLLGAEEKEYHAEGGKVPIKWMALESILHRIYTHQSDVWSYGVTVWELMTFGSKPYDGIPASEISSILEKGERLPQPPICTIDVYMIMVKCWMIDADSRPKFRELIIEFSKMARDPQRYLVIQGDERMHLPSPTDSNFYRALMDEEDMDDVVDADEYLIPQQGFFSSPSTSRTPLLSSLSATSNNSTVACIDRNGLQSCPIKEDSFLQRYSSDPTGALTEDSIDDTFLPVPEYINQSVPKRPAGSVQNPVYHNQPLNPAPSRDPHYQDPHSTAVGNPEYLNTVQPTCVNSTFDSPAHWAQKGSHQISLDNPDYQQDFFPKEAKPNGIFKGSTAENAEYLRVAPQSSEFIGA
Description for PDGFR-β: (§1) Phosphotyrosine ELISA. Cells used were tumor cell lines naturally expressing high levels of EGFR (A431), VEGFR-2 (U251), and PDGFR-β (SH-SY5Y). […] The reaction was stopped and cells were permeabilized by quickly removing the media from the cells and adding ice-cold Tris-buffered saline (TBS) containing 0.05% Triton X-100, protease inhibitor cocktail and tyrosine phosphatase inhibitor cocktail. The TBS solution was then removed and cells fixed to the plate for 30 min at 60° C. and further incubation in 70% ethanol for an additional 30 min. Cells were further exposed to block (TBS with 1% BSA) for 1 h, washed, and then a horseradish peroxidase (HRP)-conjugated phosphotyrosine (PY) antibody was added overnight.
Description for VEGFR-2: as §1

For the molecule `Cc1nc(N(C)c2ccc3c(c2)CCO3)c2cc(C)oc2n1` [Compound 6, N-(2,3-dihydro-1-benzofuran-5-yl)-N,2,6-trimethylfuro[2,3-d]pyrimidin-4-amine], the “fold better than sunitinib, VEGFR-2” value at VEGFR-2 was determined as 3 fold. On PDGFR-β, the “fold better than sunitinib, PDGFR-β” value is given as “about 4 fold”. In addition, the “effect on cellular microtubules” value in assay [1] is “dose-dependent loss of cellular microtubules”. Moreover, in the assay on M6/6 cells, the IC50 is 155 ± 17.2 nM and the Rr value is 1.3.

As for `COc1cc(N(C)c2nc(C)nc3oc(C)cc23)cc(OC)c1OC` [Compound 4, N,2,6-trimethyl-N-(3,4,5-trimethoxyphenyl)furo[2,3-d]pyrimidin-4-amine], the IC50 is over 500 nM at EGFR and over 300 nM on VEGFR-2.

With `COc1ccc2c(c1)CCN2c1nc(C)nc2oc(C)cc12` [Compound 8, 4-(5-methoxyindolin-1-yl)-2,6-dimethylfuro[2,3-d]pyrimidine], the “effect on cellular microtubules” value in assay [1] is “no effect on cellular microtubules”.

Regarding `CCOc1ccc(N(C)c2nc(C)nc3oc(C)cc23)cc1` [Compound 11, N-(4-ethoxyphenyl)-N,2,6-trimethylfuro[2,3-d]pyrimidin-4-amine], the figures for the IC50 at EGFR, on VEGFR-2 and at PDGFR-β were 102 ± 20.1 nM, 38.5 ± 4.7 nM and 84 ± 10 nM, respectively.

As for `Cc1nc(N(C)c2ccc3occc3c2)c2cc(C)oc2n1` [Compound 7, N-1-benzofuran-5-yl-N,2,6-trimethylfuro[2,3-d]pyrimidin-4-amine], at VEGFR-2, the “fold better than sunitinib, VEGFR-2” value was determined as 3 fold. Further, the “fold better than sunitinib, PDGFR-β” value at PDGFR-β is given as “about 4 fold”. Also, in assay [1], the “effect on cellular microtubules” value is “dose-dependent loss of cellular microtubules”. In the assay with M6/6 cells, the IC50 is 509 ± 4.8 nM and the Rr value is 1.2.

As to `COc1ccc(N(C)c2nc(C)nc3oc(C)cc23)cc1` [Compound 1], the EC50 in assay [1] (Rattus norvegicus, A10, 18 h, read-out: EC50 for MT depolymerization in A · 10 cells) worked out at 103 nM. The Rr value was determined as 0.8 in the assay with WTβ3 cells and 1.7 in the assay on M6/6 cells. The IC50 in the assay on tubulin turned out to be 2.4 ± 0.01 µM.

Consider `CC(=O)O[C@H]1C(=O)[C@@]2(C)[C@H]([C@H](OC(=O)c3ccccc3)[C@]3(O)C[C@H](OC(=O)[C@H](O)[C@@H](NC(=O)c4ccccc4)c4ccccc4)C(C)=C1C3(C)C)[C@]1(OC(C)=O)CO[C@@H]1C[C@@H]2O` [Paclitaxel, reference compound], for which the Rr value with WTβ3 cells was 17.3; with M6/6 cells it was “over 250 and 265.2”.

On to `CCCOc1ccc(N(C)c2nc(C)nc3oc(C)cc23)cc1` [Compound 12, N-2,6-trimethyl-N-(4-propoxyphenyl)furo[2,3-d]pyrimidin-4-amine], for which the IC50 at EGFR is over 500 nM; at VEGFR-2 it was 121 ± 18.6 nM; on PDGFR-β, 132 ± 14.4 nM; in the assay with A431 cancer cells, 92.9 ± 10.1 nM; in the assay on M6/6 cells, 30.8 ± 1.7 nM. Besides, the Rr value with M6/6 cells was found to be 1.3.

On to `COc1ccc(/C=C\c2cc(OC)c(OC)c(OC)c2)cc1O` [CA-4, combretastatin A-4, reference compound], for which the Rr value with WTβ3 cells was found to be 1.0; in the assay on M6/6 cells, 0.4.

Regarding `COc1ccc(N(C)c2nc(C)nc3oc(C)cc23)cc1OC` [Compound 3, N-(3,4-dimethoxyphenyl)-N,2,6-trimethylfuro[2,3-d]pyrimidin-4-amine], the “effect on cellular microtubules” value in assay [1] is reported as “dose-dependent loss of cellular microtubules”.

For `COc1ccc2c(c1)CCCN2c1nc(C)nc2oc(C)cc12` [Compound 10, 4-(6-methoxy-3,4-dihydroquinolin-1(2H)-yl)-2,6-dimethylfuro[2,3-d]pyrimidine], the “effect on cellular microtubules” value in assay [1] is on record as “dose-dependent loss of cellular microtubules”.

For the molecule `COc1ccc2c(ccn2-c2nc(C)nc3oc(C)cc23)c1` [Compound 9, 4-(5-methoxy-1H-indol-1-yl)-2,6-dimethylfuro[2,3-d]pyrimidine], the IC50 on EGFR is over 500 nM.

The term EC50 denotes the concentration needed to bring the measured effect to its halfway point.
